Data reported in patent publication US11628181B2, “N4-hydroxycytidine and derivatives and anti-viral uses related thereto” (Emory University, priority 2014, dated 2023).

Key:
CHIKV = test: microbe, parasite or virus in culture; conditions: Chikungunya virus

For `C[C@@]1(O)C2OP(=O)(Oc3ccccc3)OC[C@H]2O[C@H]1n1ccc(=O)[nH]c1=O` (some centres unmarked) [EIDD-01872-01], the CC50 (in vitro) was greater than 500 µM and the EC50 (CHIKV) was greater than 78 µM.
With `NNc1ccn([C@@H]2O[C@H](CO)C(O)[C@@H]2O)c(=O)n1` (some centres unmarked) [EIDD-01910-01] the CC50 (in vitro) was greater than 500 µM and the EC50 (CHIKV) was greater than 78 µM.
`CC1(F)[C@@H](O)[C@@H](CO)O[C@H]1n1ccc(NO)nc1=O` (some centres unmarked) [EIDD-02080-01] gave a CC50 (in vitro) greater than 500 µM and an EC50 (CHIKV) greater than 75 µM.
For `O=c1nc(NO)ccn1[C@@H]1O[C@H](CO)[C@H](O)C1F` (some centres unmarked) [EIDD-02085-01], the CC50 (in vitro) was greater than 500 µM and the EC50 (CHIKV) was greater than 75 µM.
For `CCCCCCCNC(=O)ONc1ccn([C@@H]2O[C@H](CO)[C@H](O)C2O)c(=O)n1` (some centres unmarked) [EIDD-02107-01], the CC50 (in vitro) was 165 µM and the EC50 (CHIKV) was 29 µM.
With `CCCCCCCCCCCCCCCCOCCCOP(=O)(O)OC[C@H]1O[C@@H](n2ccc(NO)nc2=O)[C@@H](O)C1O` (some centres unmarked) [EIDD-02108-03] the CC50 (in vitro) was 98 µM and the EC50 (CHIKV) was 34.5 µM.
For `CC(C)(C)C(=O)OCOP(=O)(OCOC(=O)C(C)(C)C)OC[C@@]1(N=[N+]=[N-])O[C@@H](n2ccc(=O)[nH]c2=O)[C@@H](O)C1O` (some centres unmarked) [EIDD-02110-03], the CC50 (in vitro) was 387 µM and the EC50 (CHIKV) was 56 µM.
Work on `O=c1nc(NO)ccn1[C@@H]1O[C@H](CO)C(O)[C@@H]1O` (some centres unmarked) [EIDD-02200-01] yielded a CC50 (in vitro) greater than 500 µM and an EC50 (CHIKV) greater than 78 µM.
In the case of `O=c1nc(NO)ccn1[C@@H]1O[C@H](COP2(=O)OCc3ccccc3O2)C(O)[C@@H]1O` (some centres unmarked) [EIDD-02207-01], the CC50 (in vitro) is reported as greater than 500 µM and the EC50 (CHIKV) is reported as 10.8 µM.
Compound `[2H]c1cn([C@@H]2O[C@H](CO)C(O)[C@@H]2O)c(=O)nc1NO` (some centres unmarked) [EIDD-02261-01] has a CC50 (in vitro) greater than 500 µM and an EC50 (CHIKV) of 1.5 µM.
`C#C[C@@]1(O)C(O)[C@@H](COP(=O)(OCOC(=O)C(C)(C)C)OCOC(=O)C(C)(C)C)O[C@H]1n1ccc(=O)[nH]c1=O` (some centres unmarked) [EIDD-02290-01] showed a CC50 (in vitro) of 274 µM and an EC50 (CHIKV) of 64.4 µM.
Work on `O=c1ccn([C@@H]2O[C@H](CO)C(O)[C@]23CC3(F)F)c(=O)[nH]1` (some centres unmarked) [EIDD-02339-01] yielded a CC50 (in vitro) greater than 500 µM and an EC50 (CHIKV) greater than 78 µM.
`O=c1ccn([C@@H]2O[C@H](CO)C(O)[C@@]23CC3(F)F)c(=O)[nH]1` (some centres unmarked) [EIDD-02340-01] showed a CC50 (in vitro) greater than 500 µM and an EC50 (CHIKV) greater than 78 µM.
`[2H]C([2H])(O)[C@H]1O[C@@H](n2ccc(NO)nc2=O)[C@@H](O)C1O` (some centres unmarked) [EIDD-02345-01] gave a CC50 (in vitro) greater than 500 µM and an EC50 (CHIKV) of 1.5 µM.
`CCCCCCCCCCCCCCCCNC(=O)ONc1ccn([C@@H]2O[C@H](CO)[C@H](O)C2O)c(=O)n1` (some centres unmarked) [EIDD-02356-01] showed a CC50 (in vitro) of 211 µM and an EC50 (CHIKV) greater than 78 µM.
Work on `CCCCCCCCCCCCCCCCCCNC(=O)ONc1ccn([C@@H]2O[C@H](CO)[C@H](O)C2O)c(=O)n1` (some centres unmarked) [EIDD-02357-01] yielded a CC50 (in vitro) of 90 µM and an EC50 (CHIKV) greater than 78 µM.
With `CC(C)(C)C(=O)OCOP(=O)(OCOC(=O)C(C)(C)C)OC[C@H]1O[C@@H](n2ccc(=O)[nH]c2=O)[C@](C)(O)C1O` (some centres unmarked) [EIDD-02416-01] the CC50 (in vitro) was 53 µM and the EC50 (CHIKV) was 27 µM.
`CNC(=O)ONc1ccn([C@@H]2O[C@H](CO)C(O)[C@@H]2O)c(=O)n1` (some centres unmarked) [EIDD-02422-01] showed a CC50 (in vitro) greater than 500 µM and an EC50 (CHIKV) of 32 µM.
In the case of `CN(C)C(=O)ONc1ccn([C@@H]2O[C@H](CO)[C@H](O)C2O)c(=O)n1` (some centres unmarked) [EIDD-02423-01], the CC50 (in vitro) is reported as greater than 500 µM and the EC50 (CHIKV) is reported as 25 µM.
`CC(C)(C)C(=O)OCOP(=O)(OCOC(=O)C(C)(C)C)OC[C@H]1O[C@@H](n2ccc(=O)[nH]c2=O)[C@](C)(F)C1O` (some centres unmarked) [EIDD-02427-01] gave a CC50 (in vitro) of 355 µM and an EC50 (CHIKV) of 58 µM.
With `CCCCCCCOC(=O)OC[C@H]1O[C@@H](n2ccc(NO)nc2=O)C(O)[C@H]1O` (some centres unmarked) [EIDD-02474-01] the CC50 (in vitro) was 184 µM and the EC50 (CHIKV) was 0.07 µM.
`CCCCCCCNC(=O)OC[C@H]1O[C@@H](n2ccc(NO)nc2=O)C(O)[C@H]1O` (some centres unmarked) [EIDD-02475-01] showed a CC50 (in vitro) greater than 500 µM and an EC50 (CHIKV) greater than 78 µM.
Compound `CCCCCCCCC(=O)OC[C@H]1O[C@@H](n2ccc(NO)nc2=O)C(O)[C@H]1O` (some centres unmarked) [EIDD-02476-01] has a CC50 (in vitro) of 154 µM and an EC50 (CHIKV) of 0.3 µM.
In the case of `CCOP(=O)(OCC)OC[C@H]1O[C@@H](n2ccc(NO)nc2=O)[C@@H](O)C1O` (some centres unmarked) [EIDD-02503-01], the CC50 (in vitro) is reported as greater than 500 µM and the EC50 (CHIKV) is reported as greater than 78 µM.
`O=c1nc(NO)cc[nH]1` [EIDD-02504-01] showed a CC50 (in vitro) greater than 500 µM and an EC50 (CHIKV) greater than 78 µM.
